Changes are numbered by the printed parent chain. Several values for one entry are separate records, joined by “and”; a condition that tells them apart may be missing. Equal entries are not always repeated. Where two headings read alike, the source gives them in different places.
Legend:
Type in all cases: cell-based
C3aR L82^2.64A = molecular target: T1, C3aR L82^2.64A (Homo sapiens, UniProt Q16581, L82A); experiment: GloSensor-based cAMP assay, C3aR mutant L82A
T1 construct: expressed in transfected cells; host or cells: HEK293T
T1 sequence (Q16581 1-482 L82A): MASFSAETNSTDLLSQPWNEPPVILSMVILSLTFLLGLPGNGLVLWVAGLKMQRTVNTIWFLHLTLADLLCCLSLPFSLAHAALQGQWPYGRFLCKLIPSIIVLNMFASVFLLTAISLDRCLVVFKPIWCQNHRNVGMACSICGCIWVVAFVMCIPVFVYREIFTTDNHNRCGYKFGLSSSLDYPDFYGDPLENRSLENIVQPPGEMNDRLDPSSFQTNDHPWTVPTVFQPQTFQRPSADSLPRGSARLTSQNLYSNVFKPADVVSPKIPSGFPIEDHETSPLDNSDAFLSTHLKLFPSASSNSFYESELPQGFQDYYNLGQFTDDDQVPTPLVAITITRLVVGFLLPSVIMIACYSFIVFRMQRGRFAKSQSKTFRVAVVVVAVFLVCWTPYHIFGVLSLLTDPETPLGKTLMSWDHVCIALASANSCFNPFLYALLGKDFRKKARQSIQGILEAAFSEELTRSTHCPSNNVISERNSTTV
Experimental: (§1) HEK293T cells were seeded on 6-well plates (NEST) and transfected with pGlosensor™-22F plasmids (Promega) and pcDNA3.1 plasmids encoding C3aR or its mutants an with N-terminal FLAG tag. After 48 h, cells were detached with Accutase solution (Sigma-Aldrich) and washed with PBS, and resuspended in assay buffer (CO2-independent medium with 0.5 mg mL^−1D-luciferin). 100,000–200,000 cells were seeded on 96-well white bottom plates (SPL) and incubated at 37 °C for 45 min followed by 45 min incubation at room temperature. After 90 min of incubation, basal luminescence signals were recorded. In total, 25 μl of test ligand with various concentrations and 1 μM Forskolin (Sigma-Aldrich) were treated to the cells and luminescence signals were measured by Tristar 2 LB 942 multimode reader (Berthold). […] Relative luminescence unit (%) was calculated with the signal of wells treated with vehicle as 0% and the signal of wells treated with 1 μM Forskolin as 100% (DiRaddo et al, [2014]). Nonlinear regression was performed using a three-parameter logistic equation.

C3aR H418^7.36A = molecular target: T2, C3aR H418^7.36A (Homo sapiens, UniProt Q16581, H418A); experiment: GloSensor-based cAMP assay, C3aR mutant H418A
T2 construct: expressed in transfected cells; host or cells: HEK293T
T2 sequence (Q16581 1-482 H418A): T1 sequence (Q16581 1-482 L82A) with A82L, H418A
Experimental: as §1

C3aR D417^7.35A = molecular target: T3, C3aR D417^7.35A (Homo sapiens, UniProt Q16581, D417A); experiment: GloSensor-based cAMP assay, C3aR mutant D417A
T3 construct: expressed in transfected cells; host or cells: HEK293T
T3 sequence (Q16581 1-482 D417A): T1 sequence (Q16581 1-482 L82A) with A82L, D417A
Experimental: as §1

[1] = Dunnett's multiple comparisons test, WT minus mutant

With `Cc1cc(C(c2ccc(Cl)cc2)c2ccc(Cl)cc2)sc1C(=O)N[C@@H](CCCNC(=N)N)C(=O)O` [JR14a, reference compound] as the compound, how does the “Mean Diff. of pIC50, WT vs. L82A” value (C3aR L82^2.64A; [1]) read?
The value was -0.402.

What about the IC50 (C3aR L82^2.64A; IC50, L82^2.64A, dose-response plot) of the same compound?
The IC50 was 2.07 nM.

What about the remaining activity at 1 µM (C3aR L82^2.64A; L82A, Log[JR14a (M)] -6, single replicates, read-out: cAMP response (% Forskolin)) of the same compound?
Its remaining activity at 1 µM is 9.36%.

What about the remaining activity at 0.1 µM (C3aR L82^2.64A; L82A, Log[JR14a (M)] -7, single replicates, read-out: cAMP response (% Forskolin)) of the same compound?
The remaining activity at 0.1 µM was 8.92%.

What about the remaining activity at 0.01 µM (C3aR L82^2.64A; L82A, Log[JR14a (M)] -8, single replicates, read-out: cAMP response (% Forskolin)) of the same compound?
Its remaining activity at 0.01 µM is 34.1%.

And the remaining activity at 0.001 µM (C3aR L82^2.64A; L82A, Log[JR14a (M)] -9, single replicates, read-out: cAMP response (% Forskolin))?
Its remaining activity at 0.001 µM is 62.6%.

What about the remaining activity at 0.0001 µM (C3aR L82^2.64A; L82A, Log[JR14a (M)] -10, single replicates, read-out: cAMP response (% Forskolin)) of the same compound?
The remaining activity at 0.0001 µM was 93.2%.

And the remaining activity at 10 pM (C3aR L82^2.64A; L82A, Log[JR14a (M)] -11, single replicates, read-out: cAMP response (% Forskolin))?
Its remaining activity at 10 pM is 106%.

What about the “ΔpIC50 ± SE of Diff.” value (C3aR L82^2.64A; L82^2.64A relative to WT C3aR) of the same compound?
The value was 0.40 ± 0.14.

And the IC50 (C3aR L82^2.64A; pIC50 (Replicate), L82^2.64A, individual replicates)?
Its IC50 is 1.55 nM and 3.39 nM and 1.66 nM.

And the IC50 (C3aR L82^2.64A; pIC50 ± SEM (Mean), L82^2.64A, mean of independent experiments)?
Its IC50 is 2.04 nM.

And the “Mean Diff. of pIC50, WT vs. H418A” value (C3aR H418^7.36A; [1])?
Its value is -0.145.

What about the “ΔpIC50 ± SE of Diff.” value (C3aR H418^7.36A; H418^7.36A relative to WT C3aR) of the same compound?
Its value is 0.14 ± 0.08.

And the IC50 (C3aR H418^7.36A; H418^7.36A, mean of independent experiments, read-out: pIC50 ± SEM (Mean) (converted))?
Its IC50 is 2.51 nM.

What about the IC50 (C3aR H418^7.36A; IC50, H418^7.36A, dose-response plot) of the same compound?
Its IC50 is 2.56 nM.

And the IC50 (C3aR H418^7.36A; pIC50 (Replicate), H418^7.36A, individual replicates)?
Its IC50 is 2.04 nM and 4.07 nM and 4.79 nM and 0.977 nM.

What about the remaining activity at 1 µM (C3aR D417^7.35A; D417A, Log[JR14a (M)] -6, single replicates, read-out: cAMP response (% Forskolin)) of the same compound?
The remaining activity at 1 µM was 35.7%.

What about the remaining activity at 0.1 µM (C3aR D417^7.35A; D417A, Log[JR14a (M)] -7, single replicates, read-out: cAMP response (% Forskolin)) of the same compound?
The remaining activity at 0.1 µM was 87.8%.

What about the remaining activity at 0.001 µM (C3aR D417^7.35A; D417A, Log[JR14a (M)] -9, single replicates, read-out: cAMP response (% Forskolin)) of the same compound?
The remaining activity at 0.001 µM was 105%.

What about the remaining activity at 0.0001 µM (C3aR D417^7.35A; D417A, Log[JR14a (M)] -10, single replicates, read-out: cAMP response (% Forskolin)) of the same compound?
Its remaining activity at 0.0001 µM is 104%.

And the “ΔpIC50 ± SE of Diff.” value (C3aR D417^7.35A; D417^7.35A relative to WT C3aR)?
Its value is -2.18 ± 0.05.

What about the “Mean Diff. of pIC50, WT vs. D417A” value (C3aR D417^7.35A; [1]) of the same compound?
The value was 2.176.

And the IC50 (C3aR D417^7.35A; IC50, D417^7.35A, dose-response plot, Not calculated = entire loss of signaling)?
The IC50 was 425 nM.

And the IC50 (C3aR D417^7.35A; pIC50 (Replicate), D417^7.35A, individual replicates)?
The IC50 was 575 nM and 339 nM and 380 nM.

What about the IC50 (C3aR D417^7.35A; pIC50 ± SEM (Mean), D417^7.35A, mean of independent experiments, Not calculated = entire loss of signaling) of the same compound?
Its IC50 is 417 nM.

— article PMC12084609, “Structural insights into small-molecule agonist recognition and activation of complement receptor C3aR” (The EMBO Journal, 2025)
